Measured values: patent US20230059009A1, “INHIBITORS OF LIN28 AND METHODS OF USE THEREOF” (The Regents of the University of California, priority 2019, published 2023)
Each block holds one compound with its values, some of them ahead of it.

How the values were obtained:
[1] = molecular target: T1, LIN28B/pre-let-7a-2 binding (Homo sapiens, UniProt Q6ZN17); experiment: FRET assay, EGFP-tagged LIN28B and BHQ-1 labelled pre-let-7a-2; details: doses 1.25 uM-20 uM; compared with LN1632
T1 construct: made in house; host or cells: stably transduced HEK cells; used as diluted protein lysate, not purified
T1 sequence (Q6ZN17 1-250): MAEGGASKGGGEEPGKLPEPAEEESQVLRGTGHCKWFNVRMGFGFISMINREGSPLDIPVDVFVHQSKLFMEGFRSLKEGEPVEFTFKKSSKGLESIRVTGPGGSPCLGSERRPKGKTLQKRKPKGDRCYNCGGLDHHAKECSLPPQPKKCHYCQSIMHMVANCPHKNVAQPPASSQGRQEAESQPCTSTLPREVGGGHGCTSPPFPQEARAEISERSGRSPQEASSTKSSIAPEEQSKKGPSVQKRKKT
Protocol: As described herein, compounds of formula (I) and (II) show Lin28/let-7 inhibitory activity in FRET assays in vitro and in LSCs and LSC-like Kasumi-1 cells. FRET assay was performed as previously described (51).
In order to improve binding and inhibitory capacity of a compound to LIN28b, we predicted the binding mode of LN1632 to LIN28B. […] With this model in hand, we synthesized novel compounds with improved binding capacity to Lin28b (JGJ002-JGJ008, FIG. 8). Compounds were screened using a previously described FRET-assay with an EGFP-tagged LIN28B as donor and a BHQ-1 quencher labelled pre-let-7a-2 (pre-let-7a-2-BHQ1) as acceptor (51). Briefly, recombinant LIN28B-EGFP was harvested from stably transduced HEK cells and diluted with binding buffer (300 mM NaCl, 25 mM HEPES pH 7.2, 10 μM ZnCl2, 1% Odyssey Blocking Buffer, 0.05% Tween 20, 0.5 mM TCEP) in order to adjust ideal FRET-quenching signal intensity. Protein lysate and compounds (JGJ001-JGJ008) were pre-incubated in doses ranging from 1.25 uM-20 uM for 20 min in 100 uL diluted protein lysate. Subsequently pre-let-7a-2-BHQ1 was added to the mixture (at 6.25 nM) and EGFP-LIN28B donor emission was measured using a Tecan Spark Plate Reader ([…], excitation at 488 nm, emission read-out at […], 30 flashes/s). […] Increased endogenous let-7 miRNA levels can target a panoply of LCS and cancer stem cell hallmark genes thus inhibiting tumor growth.
(§1) To test the structure-activity relationship, 39 LN1632-related analogs (JGJ001-39) were synthesized and their potency and specificity to inhibit LIN28B-RNA binding activity and upregulate mature let-7 miRNA levels was measured. […] The dual luciferase reporter assay was performed as previously described (89).

H1975 = experiment: Cell viability, MTT assay, H1975; assay type: cell-based; details: Homo sapiens, NCI-H1975, H1975 (Lung)
Protocol: (§2) To measure cell viability, cell titer glow (CTG, Promega CellTiter-Glo 2.0 Assay) and MTT assays (SigmaAldrich, Cell Proliferation Kit I) were performed. Briefly, cells were serum starved overnight prior to seeding in 96-well plates. Following 24 h incubation, cells were treated with increasing concentrations of JGJ compounds for 96 hr. At assay read-out, CellTiter-Glo reagent was added and luminescence was measured after 10-minutes incubation at room temperature. For the MTT assay, MTT labeling reagent was added and incubated for 4 h. Subsequently, medium was removed and 50 μL DMSO was added to solubilize the crystals, and absorbance was measured at 570 nm. Cell viability was calculated as (Sample-Background)/(Control-Background).

A549 = experiment: Cell viability, MTT assay, A549; assay type: cell-based; details: Homo sapiens, A549 (Lung)
Protocol: as §2

Caco2 permeability = assay type: in vitro ADME; details: human, Caco-2, Conc. 5 uM
[2] = Microsomal stability, CD-1 Mouse; assay type: in vitro ADME; details: Conc. 5 uM
[3] = Microsomal stability, Human; assay type: in vitro ADME; details: Conc. 5 uM
CYP 1A2 = molecular target: T2, CYP 1A2 (Homo sapiens, UniProt P05177); experiment: CYP inhibition 1A2; assay type: in vitro ADME; parameters: unit not given here; details: Conc. 10 uM
T2 sequence (P05177 1-516): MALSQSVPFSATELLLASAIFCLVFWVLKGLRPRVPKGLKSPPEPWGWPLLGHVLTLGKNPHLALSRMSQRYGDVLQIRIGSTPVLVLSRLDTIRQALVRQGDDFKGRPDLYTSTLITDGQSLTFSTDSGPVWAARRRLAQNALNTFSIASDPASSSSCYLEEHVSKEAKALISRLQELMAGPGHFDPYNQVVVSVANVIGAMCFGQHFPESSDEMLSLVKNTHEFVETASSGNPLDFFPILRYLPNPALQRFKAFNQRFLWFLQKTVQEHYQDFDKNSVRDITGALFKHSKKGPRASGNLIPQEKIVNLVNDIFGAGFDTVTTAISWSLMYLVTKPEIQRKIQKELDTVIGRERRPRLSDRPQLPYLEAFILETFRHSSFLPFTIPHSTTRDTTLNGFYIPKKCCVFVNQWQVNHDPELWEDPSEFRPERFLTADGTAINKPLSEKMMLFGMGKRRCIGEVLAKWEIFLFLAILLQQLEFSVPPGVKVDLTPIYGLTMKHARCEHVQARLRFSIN

CYP 2B6 = molecular target: T3, CYP 2B6 (Homo sapiens, UniProt P20813); experiment: CYP inhibition 2B6; assay type: in vitro ADME; parameters: unit not given here; details: Conc. 10 uM
T3 sequence (P20813 1-491): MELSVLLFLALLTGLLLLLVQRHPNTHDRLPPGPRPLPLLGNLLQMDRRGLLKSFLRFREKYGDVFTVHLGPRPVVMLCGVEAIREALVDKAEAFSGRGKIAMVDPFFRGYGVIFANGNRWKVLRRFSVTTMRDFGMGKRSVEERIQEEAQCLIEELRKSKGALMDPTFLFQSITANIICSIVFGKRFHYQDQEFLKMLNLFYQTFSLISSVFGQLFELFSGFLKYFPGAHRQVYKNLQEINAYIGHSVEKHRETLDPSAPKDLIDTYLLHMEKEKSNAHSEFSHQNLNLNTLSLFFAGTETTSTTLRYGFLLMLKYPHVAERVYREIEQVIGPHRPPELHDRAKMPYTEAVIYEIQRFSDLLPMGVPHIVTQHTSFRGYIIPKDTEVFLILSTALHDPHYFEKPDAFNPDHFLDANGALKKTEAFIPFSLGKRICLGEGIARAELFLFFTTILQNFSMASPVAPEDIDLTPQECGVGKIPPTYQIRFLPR

CYP 2C8 = molecular target: T4, CYP 2C8 (Homo sapiens, UniProt P10632); experiment: CYP inhibition 2C8; assay type: in vitro ADME; parameters: unit not given here; details: Conc. 10 uM
T4 sequence (P10632 1-490): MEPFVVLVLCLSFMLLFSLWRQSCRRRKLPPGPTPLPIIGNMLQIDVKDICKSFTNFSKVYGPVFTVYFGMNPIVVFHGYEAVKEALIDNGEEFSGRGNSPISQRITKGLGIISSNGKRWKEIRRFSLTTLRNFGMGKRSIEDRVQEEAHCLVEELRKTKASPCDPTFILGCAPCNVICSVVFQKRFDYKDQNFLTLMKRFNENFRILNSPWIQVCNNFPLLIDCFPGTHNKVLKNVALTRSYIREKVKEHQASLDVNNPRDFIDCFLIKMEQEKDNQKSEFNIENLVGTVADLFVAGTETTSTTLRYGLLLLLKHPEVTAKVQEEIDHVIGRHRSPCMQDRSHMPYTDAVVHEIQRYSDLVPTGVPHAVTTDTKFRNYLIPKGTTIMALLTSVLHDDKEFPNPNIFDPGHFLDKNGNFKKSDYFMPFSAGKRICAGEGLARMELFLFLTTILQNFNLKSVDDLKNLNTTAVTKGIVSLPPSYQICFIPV

CYP 2C9 = CYP 2C9 (Homo sapiens, UniProt P11712); experiment: CYP inhibition 2C9; assay type: in vitro ADME; parameters: unit not given here; details: Conc. 10 uM
Sequence of CYP 2C9 (P11712 whole entry): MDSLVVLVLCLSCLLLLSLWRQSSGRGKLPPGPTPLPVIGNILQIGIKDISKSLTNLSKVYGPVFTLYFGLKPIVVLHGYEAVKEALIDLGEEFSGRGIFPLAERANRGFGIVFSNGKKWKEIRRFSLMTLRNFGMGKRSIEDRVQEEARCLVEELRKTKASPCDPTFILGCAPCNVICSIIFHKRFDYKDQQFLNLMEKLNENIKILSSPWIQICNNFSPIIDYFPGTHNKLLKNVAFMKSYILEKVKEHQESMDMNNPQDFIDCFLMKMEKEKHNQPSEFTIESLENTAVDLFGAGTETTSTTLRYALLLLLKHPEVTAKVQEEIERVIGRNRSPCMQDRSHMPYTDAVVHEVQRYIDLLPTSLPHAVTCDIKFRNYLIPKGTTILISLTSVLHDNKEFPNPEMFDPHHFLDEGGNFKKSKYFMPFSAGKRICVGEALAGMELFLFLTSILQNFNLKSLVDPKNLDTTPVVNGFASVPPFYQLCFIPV

CYP 2C19 = CYP 2C19 (Homo sapiens, UniProt P33261); experiment: CYP inhibition 2C19; assay type: in vitro ADME; parameters: unit not given here; details: Conc. 10 uM
Sequence of CYP 2C19 (P33261 whole entry): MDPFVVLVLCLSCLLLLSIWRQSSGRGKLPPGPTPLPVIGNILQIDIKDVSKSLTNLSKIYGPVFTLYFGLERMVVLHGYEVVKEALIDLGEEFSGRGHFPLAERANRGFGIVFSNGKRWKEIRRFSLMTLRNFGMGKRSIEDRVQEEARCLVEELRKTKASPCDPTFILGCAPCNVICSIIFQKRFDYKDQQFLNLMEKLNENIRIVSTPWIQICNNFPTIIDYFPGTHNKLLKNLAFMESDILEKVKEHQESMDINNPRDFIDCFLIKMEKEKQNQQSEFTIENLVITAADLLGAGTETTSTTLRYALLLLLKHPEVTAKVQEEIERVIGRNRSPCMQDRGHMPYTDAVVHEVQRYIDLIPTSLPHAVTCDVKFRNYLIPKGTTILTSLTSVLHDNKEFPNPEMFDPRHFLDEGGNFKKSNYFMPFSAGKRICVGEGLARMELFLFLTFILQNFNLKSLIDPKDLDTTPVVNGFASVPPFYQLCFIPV

CYP 2D6 = CYP 2D6 (Homo sapiens, UniProt P10635); experiment: CYP inhibition 2D6; assay type: in vitro ADME; parameters: unit not given here; details: Conc. 10 uM
Sequence of CYP 2D6 (P10635 whole entry): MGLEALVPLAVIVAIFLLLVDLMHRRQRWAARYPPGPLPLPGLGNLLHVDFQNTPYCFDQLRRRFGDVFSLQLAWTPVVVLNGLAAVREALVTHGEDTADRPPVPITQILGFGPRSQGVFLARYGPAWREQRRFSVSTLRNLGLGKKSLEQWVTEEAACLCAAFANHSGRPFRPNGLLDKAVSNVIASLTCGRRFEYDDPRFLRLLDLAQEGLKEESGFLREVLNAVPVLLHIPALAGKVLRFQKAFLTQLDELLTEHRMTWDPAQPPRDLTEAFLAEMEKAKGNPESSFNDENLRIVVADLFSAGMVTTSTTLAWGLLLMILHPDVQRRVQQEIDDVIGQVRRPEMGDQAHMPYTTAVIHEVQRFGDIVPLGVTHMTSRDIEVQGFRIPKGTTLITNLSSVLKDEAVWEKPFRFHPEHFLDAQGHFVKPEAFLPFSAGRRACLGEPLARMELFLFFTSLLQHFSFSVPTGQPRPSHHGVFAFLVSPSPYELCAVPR

mature let-7 miRNAs = experiment: Dual luciferase reporter assay of mature let-7 miRNAs in HepG2 cells; assay type: cell-based; details: 3-10 μM, compared with LN1632
Protocol: as §1

[4] = microsomes, read-out: Microsomal stability T½

Compound: CC(=O)N(C)c1cccc(-c2ccc3ncc(C)n3n2)c1 [JGJ008, N-Methyl-N-(3-(3-methylimidazo[1,2-b]pyridazin-6-yl)phenyl)acetamide]
- Inhibition of LIN28B binding to pre-let-7a (FRET signal) [1]: greater inhibition of the LIN28B/pre-let-7a2 binding than the original compound LN1632

- IC50 (H1975): 21 µM
- IC50 (A549): 11 µM
Compound: C=CC(=O)Nc1cc(Nc2nccc(-c3cn(C)c4ccccc34)n2)c(OC)cc1N(C)CCN(C)C [Osimertinib, reference compound]

- Papp A→B at 5 uM (Caco2 permeability): 27.2 ×10⁻⁶ cm/s
- Papp B→A at 5 uM (Caco2 permeability): 25 ×10⁻⁶ cm/s
- efflux ratio at 5 uM (Caco2 permeability): 0.6
- recovery at 5 uM (Caco2 permeability; read-out: Caco2 Mean A-B % Recovery): 84%
- Microsomal stability % Remaining at T30 [2]: T30 = 17%
- microsomal CLint at 5 uM ([2]; microsomes): 118 µL/min/mg
- half-life at 5 uM [2, 4]: 11.8 min
- Microsomal stability % Remaining at T30 [3]: T30 = 54.7%
- microsomal CLint at 5 uM ([3]; microsomes): 38.2 µL/min/mg
- half-life at 5 uM [3, 4]: 36.2 min
- CYP inhibition 1A2 (CYP 1A2): 96.2
- CYP inhibition 2B6 (CYP 2B6): 30.9
- CYP inhibition 2C8 (CYP 2C8): 61.1
- CYP inhibition 2C9 (CYP 2C9): 48.8
- CYP inhibition 2C19 (CYP 2C19): 35
- CYP inhibition 2D6 (CYP 2D6): 67.8
Compound: CC(=O)Nc1cc(F)cc(-c2ccc3ncc(C)n3n2)c1 [JGJ026, N-(3-Fluoro-5-(3-methylimidazo[1,2-b]pyridazin-6-yl)phenyl)acetamide]
- Inhibition of LIN28B binding to pre-let-7a (FRET signal) [1]: inhibit LIN28's RNA-binding capacity significantly more than compound LN1632
- Upregulation of mature let-7 miRNAs (mature let-7 miRNAs): upregulated mature let-7 miRNAs at significantly lower doses than LN1632

Compound: Nc1cccc(-c2ccc3ncc(-c4ccccc4)n3c2)c1 [JGJ032, 3-(3-Phenylimidazo[1,2-a]pyridin-6-yl)aniline]
- Inhibition of LIN28B binding to pre-let-7a (FRET signal) [1]: inhibit LIN28's RNA-binding capacity significantly more than compound LN1632

Compound: Cc1cnc2ccc(-c3cccc([N+](=O)[O-])c3)nn12 [JGJ005, 3-Methyl-6-(3-nitrophenyl)imidazo[1,2-b]pyridazine]
- Inhibition of LIN28B binding to pre-let-7a (FRET signal) [1]: greater inhibition of the LIN28B/pre-let-7a2 binding than the original compound LN1632
